Results reported in patent publication US6946259B2, “Compositions and methods for treating cells having double minute DNA” (The Salk Institute For Biological Studies, priority 1998, dated 2005).
“Also recorded” adds a separate entry of the source. Structures can show the parent of a compound that is named as a salt.

Key:
COLO 320DM cells [1] = assay: Quantification of c-myc+ (DM-containing) micronuclei in COLO 320DM cells by FISH; format: cell-based, human; conditions: for micronucleation (frequency of c-myc+ micronuclei): COLO 320DM cells treated for 3 days; for micronucleation efficiency at concentrations that severely inhibited S-phase: COLO 320DM cells, 3 days, high drug concentrations
Method: (§1) FIGS. 3A and 3B show the effects of various drugs on induction of micronuclei and cell cycle distribution. COLO 320DM cells were treated for 3 days with inhibitors of DNA replication (aphidicolin (“APH”); deferoxamine (“Def”), guanazole (“Gua”); hydroxurea (“HU”); and PALA), repair (coumarin (“Cou”); nicotinamide (“NA”)) or the membrane active agent DMSO at the concentrations indicated. In FIG. 3A, the treated cells were fixed with methanol/acetic acid and hybridized with c-myc cosmid probe. The numbers of micronuclei that were stained brightly with c-myc probe were scored and expressed as “frequency of c-myc^+ micronuclei (%)” relative to the number of interphase nuclei scored (more than 1000 for each point). In FIG. 3B, the cells were pulse-labeled with BrdU (for 30 min) at the end of the drug treatment, and analyzed by flow cytometry as described below to determine the fraction of cells in G1, S, and G2/M.
Micronuclei containing DM sequences in COLO 320DM cells (FIGS. 2 and 3) were detected by preparing chromosome spreads using standard hypotonic swelling conditions (Lawce and Brown (1991)), followed by hybridization with a biotinylated c-myc cosmid probe as described previously (Shimizu, et al. (1996)). Total micronuclei (FIG. 3) were determined by staining chromosome spreads with DAPI (Sigma; 1 μg/ml in VectaShield, Vector Inc.). The adherent cells (WS1, RPE-h and their derivatives) were grown on cover slips, fixed with cold acetone (−20° C. for 5 min) followed by cold methanol (−20° C. for 5 min), re-hydrated with PBS and stained with DAPI (1 μg/ml in VectaShield). The numbers of total or DM-enriched micronuclei were scored using 60× or 100× objectives and Zeiss fluorescence microscope equipped with appropriate epifluorescence filters. The results are expressed as “Frequency of micronuclei (%)” relative to the number of interphase nuclei scored (at least 1000 for each point).

[2] = test system: human and rodent cell lines; conditions: cited from earlier work
COLO 320DM cells [3] = assay: Cell cycle distribution of COLO 320DM cells by BrdU/PI flow cytometry; format: cell-based, human; conditions: COLO 320DM cells treated for 3 days
Method: as §1
Cell cycle distribution was analyzed using flow cytometry as described previously (Yin, et al. (1992) and Di Leonardo, et al. (1994)). Cells treated with the indicated concentrations of drugs for the indicated times were labeled with 10 μM BrdU for 30 min. […] Samples were analyzed using a Becton Dickinson FACScan. […] Data was analyzed using Sun Display as described previously (Yin, et al. (1992) and Di Leonardo, et al. (1994)).

WS1 E6 cells [4] = assay: Cell cycle distribution of WS1 E6 fibroblasts by flow cytometry; format: cell-based, human; conditions: WS1 fibroblasts expressing E6, drug for 3 days
Method: (§2) Wild type (wt) WS1 human diploid fibroblasts, or transformants expressing the neomycin resistance gene (neo) or both neo and the human papilloma virus E6 protein (E6) were generated by retroviral transduction. These cells were cultured in the absence or the presence of HU or PALA at the indicated concentrations for 3 days. […] The number of micronuclei were scored and expressed as the frequency of micronuclei (%) relative to the number of interphase nuclei scored (more than 1000 for each point). In FIG. 7B, cell cycle effects of these drugs were examined as in FIG. 2B. […] In FIG. 7C, progression through S-phase or M-phase was monitored by the incorporation of [^3H]thymidine (closed symbols) or the fraction of mitotic cells determined by microscopic detection of metaphase figures (open symbols). In FIG. 7D, the cells on the cover slips were fixed, stained with DAPI, and the frequencies of micronuclei relative to the number of interphase nuclei were scored. More than 500 nuclei were counted for each point and the results are expressed as mean±S.D for WS1 neo and WS1-E6 cells (3 independent determinations for each strain; the error bars for WS1 neo data points were smaller than the sizes of the symbols). Nuclear budding frequencies were determined on the same slides as used to determine micronucleation index (more than 1000 nuclei for each point). […]

COLO 320DM cells [5] = assay: Apoptosis in COLO 320DM cells (TUNEL assay); format: cell-based, human; conditions: COLO 320DM cultures, prolonged incubation
Method: TUNEL assay was done according to a previously published procedure (Gavrieli, et al. (1992)) and modified as described below. In brief, COLO 320DM cells were fixed in 2% PFA (10 min at room temperature), and centrifuged onto a glass slide using a cytospin apparatus. The cells were further fixed in cold methanol (−20° C., 5 min) followed by cold acetone (−20° C., 5 min). The slides were rehydrated in PBS, then equilibrated in reaction buffer (200 mM sodium cacodylate, 1 mM MgCl2, 1 mM β-mercaptoethanol, pH 7.2) for 15 min at room temperature. The end-labeling reaction was done by incubating the slides with the reaction buffer containing 10 μM biotin-dUTP (Boehringer Mannheim GmbH, Germany), and 0.3 units/μl of terminal deoxynucleotidyl transferase (Toyobo Co., Osaka, Japan), for 60 min at 37° C. The slides were washed extensively, blocked with 20% FCS, and the incorporated biotin was detected using FITC conjugated streptavidin as in the protocol for FISH (see below). The slides were treated with RNAse A (100 μg/ml 37° C., for 20 min), counterstained with PI, and observed under the conditions used for FISH.

[6] = test system: WS1 human diploid fibroblasts; assay: Frequency of micronuclei (DAPI) in WS1 normal diploid fibroblasts; format: cell-based; conditions: WS1 cells, drug for 3 days
Method: as §2

WS1 E6 cells [7] = assay: Frequency of micronuclei (DAPI) in WS1 E6 fibroblasts; format: cell-based, human; conditions: WS1 fibroblasts expressing E6, drug for 3 days
Method: as §2

[8] = test system: WS1 human diploid fibroblasts; assay: Cell cycle distribution of WS1 fibroblasts by flow cytometry; format: cell-based; conditions: WS1 cells, drug for 3 days
Method: as §2

COLO 320DM cells [9] = assay: DM content per cell by competitive PCR amplification; format: cell-based, human; conditions: HU treatment, data not shown
COLO 320DM cells [10] = assay: Localization of DMs in interphase nuclei by FISH and confocal microscopy; format: cell-based, human; conditions: 100 μM HU for 3 days
Method: Preparation of probe from purified micronuclei was as described (Shimizu, et al. (1996)), except that DNA in the purified micronuclei was directly used for biotin-labeling by using BioPrime DNA Labeling System (Life Technologies Inc. Gaithersburg, Md.). FISH using standard methanol/acetic acid-fixed nuclei was performed as described previously (Shimizu, et al. (1996)). Assessments of DM localization by confocal microscopy required the following procedure to preserve the spherical shape of the nuclei. This protocol, based on that developed for human lymphocytes (Ferguson and Ward (1992) and Vourc'h, et al. (1993)), could not be applied directly to COLO 320DM due to severe nuclear aggregation. The modified procedure involves pelleting 10 ml of COLO 320DM cells by centrifugation at 260×g for 5 min, followed by complete removal of the supernatant. […] The acquired digital images were expressed as pseudocolors, and merged using Adobe Photoshop (Adobe Systems Inc., Mountain View, Calif.).
The locations of DMs in confocal nuclear sections were determined by measuring the distance from each of the hybridized signals to the center of the nucleus using the corresponding nuclear diameter as a unit length. […] The distances from this dot to the center of the nucleus and the nuclear diameter were determined. […] At the same time, the intensity of each signal was measured using an arbitrary unit scale. […]

Q: With O=c1ccc2ccccc2o1 [Coumarin, 1,2-benzopyrone] as the compound, how does the “micronucleation (frequency of c-myc+ micronuclei)” value (COLO 320DM cells [1]) read?
A: The value was “no effect on micronucleation”.

Q: Which “micronucleation (frequency of c-myc+ micronuclei)” value (COLO 320DM cells [1]) does the source give for C[S+](C)[O-] [DMSO] here?
A: Its value is “increased micronucleation”.

Q: What about the DM copy number ([2]; some tumor cell lines) of the same compound?
A: The DM copy number was “reduce DM copy number”.

Q: What about the “cell cycle distribution (fraction of cells in G1, S, G2/M)” value (COLO 320DM cells [3]) of the same compound?
A: The value was “without lengthening S-phase”.

Q: Which “micronucleation (frequency of c-myc+ micronuclei)” value (COLO 320DM cells [1]) does the source give for NC(=O)NO [HU, hydroxyurea] here?
A: The value was “substantial increases in micronucleation”.

Q: And the “number of cells in S-phase” value (WS1 E6 cells [4])?
A: Its value is “significant increase in the number of cells in S-phase”.

Q: And the apoptosis (COLO 320DM cells [5])?
A: The apoptosis was “apoptotic cells did arise”.

Q: And the micronucleation rate [6]?
A: The micronucleation rate was “not increased”.

Q: And the “loss rate of DMs” value ([2]; human and rodent cell lines)?
A: The value was “significantly increase the loss rate of DMs”.

Q: What about the micronucleation rate (WS1 E6 cells [7]) of the same compound?
A: The micronucleation rate was “substantial further increase in micronucleation rate”.

Q: And the cell cycle effect [8]?
A: The cell cycle effect was “did not significantly affect the percentage of WS1 cells in S-phase”.

Q: What about the “reduction of DM content per cell” value (COLO 320DM cells [9]) of the same compound?
A: Its value is “approximately 3 fold”.

Q: What about the “nuclear position of DMs (peripheral localization)” value (COLO 320DM cells [10]) of the same compound?
A: The value was “preferentially depleted DMs from the nuclear periphery; also recorded: Very few peripheral DMs were detected”.

Q: For O=C(O)C[C@H](NC(=O)CP(=O)(O)O)C(=O)O [PALA, N-phosphonacetyl-L-aspartate], which “micronucleation (frequency of c-myc+ micronuclei)” value (COLO 320DM cells [1]) is on record?
A: Its value is “substantial increases in micronucleation; also recorded: induces S-phase micronucleation”.

Q: What about the “micronucleation efficiency at concentrations that severely inhibited S-phase” value (COLO 320DM cells [1]) of the same compound?
A: The value was “sharp decrease in micronucleation efficiency”.

Q: What about the “number of cells in S-phase” value (WS1 E6 cells [4]) of the same compound?
A: Its value is “significant increase in the number of cells in S-phase”.

Q: What about the micronucleation rate [6] of the same compound?
A: Its micronucleation rate is “not increased”.

Q: And the micronucleation rate (WS1 E6 cells [7])?
A: The micronucleation rate was “substantial further increase in micronucleation rate”.

Q: And the cell cycle effect [8]?
A: Its cell cycle effect is “induced a G1 cell cycle arrest”.

Q: With C[C@@]1(CO)[C@H](O)CC[C@@]2(C)[C@H]1CC[C@H]1C[C@@H]3C[C@@]12CC[C@]3(O)CO [aphidicolin, Aphidicolin] as the compound, how does the “micronucleation (frequency of c-myc+ micronuclei)” value (COLO 320DM cells [1]) read?
A: Its value is “substantial increases in micronucleation”.

Q: With CC(=O)N(O)CCCCCNC(=O)CCC(=O)N(O)CCCCCNC(=O)CCC(=O)N(O)CCCCCN [deferoxamine, deferoxamine mesylate] as the compound, how does the “micronucleation (frequency of c-myc+ micronuclei)” value (COLO 320DM cells [1]) read?
A: Its value is “substantial increases in micronucleation”.

Q: And the “micronucleation efficiency at concentrations that severely inhibited S-phase” value (COLO 320DM cells [1])?
A: The value was “sharp decrease in micronucleation efficiency”.

Q: Which “micronucleation (frequency of c-myc+ micronuclei)” value (COLO 320DM cells [1]) does the source give for Nc1n[nH]c(N)n1 [guanazole, 3,5-diamino-1,2,4-triazole] here?
A: The value was “substantial increases in micronucleation”.

Q: Which “micronucleation (frequency of c-myc+ micronuclei)” value (COLO 320DM cells [1]) does the source give for NC(=O)c1cccnc1 [nicotinamide] here?
A: Its value is “small increase”.

Q: And the “cell cycle distribution (fraction of cells in G1, S, G2/M)” value (COLO 320DM cells [3])?
A: The value was “significant increase in the G2 fraction”.
